Experimental data from EP0006128A1, “2,3-Dihydro-2-methyl-3-(2-(dimethylamino)-propyl)-3-phenyl-1H-indol-1-carboxaldehyde, process for its preparation and pharmaceutical preparations containing it” (Dr. Karl Thomae GmbH, priority 1978, dated 1980).
Where two headings read alike, the source gives them in different places.

Experiments:
wachen weißen Ratten = experiment: Cough test in conscious rats, cough provoked by inhaled citric acid spray; assay type: in vivo; conditions: Rattus norvegicus, po, 0.5 h; male rats, per os as Tylose suspension, 7,5 % citric acid spray over 2 min, cough count 30 min after application, dose halving the number of coughs
Source text: Die Hustenversuche wurden an wachen weißen Ratten (Geschlecht: männlich) durchgeführt. Die Hustenprovokation erfolgte durch Inhalation eines 7,5 %igen Zitronensäuresprays über 2 Minuten. 10 Tiere pro Dosis erhielten die Substanz als Tyloseaufschwemmung peroral appliziert. Die Bewertung erfolgte aus der durchschnittlichen prozentualen Abnahme der Zahl der Hustenstöße 30 Minuten nach Applikation gegenüber den Leerwerten. (Weitere methodische Angaben: ENGELHORN und PÜSCHMANN, Arzneim.-Forsch. 13, 474-480,(1963)). Die ED50 ist die Dosis, nach deren Verabreichung die Zahl der Hustenstöße durchschnittlich um die Hälfte vermindert wird, die Berechnung erfolgte nach der Methode von Litchfield und Wilcoxon. Es wurde für das Racemat eine ED50 von 3,9 mg/kg per os gefunden.

Katze = experiment: Antitussive effect in the cat, method of Domenjoz; assay type: in vivo; conditions: dose range 0,5 bis 2 mg/kg i.v.
[1] = tested on: durch Acetylcholin hervorgerufenen Bronchialspasmen; experiment: Broncholytic effect in guinea pigs, method of Konzett and Rössler (acetylcholine-induced bronchospasm); assay type: in vivo, Meerschweinchen; conditions: Cavia porcellus, iv, i.v. injection, dose giving 50 % reduction, read-out: Herabsetzung der durch Acetylcholin hervorgerufenen Bronchialspasmen um 50 %
Description: Die broncholytische Wirkung wurde an Meerschweinchen nach der Methode von KONZETT und RÖSSLER (Arch. exp. Path. Pharmakol. 195, 71, (1940)) geprüft. Die Herabsetzung der durch Acetyl- cholin hervorgerufenen Bronchialspasmen um 50 % wurde durch i.v.-Injektion von 1,5 mg/kg des Racemats erreicht, beim (-)-Enantiomeren reichten bereits 1 mg/kg aus, um etwa den gleichen Effekt zu erreichen.

Acute toxicity in mice = conditions: mouse, in vivo, mice of both sexes, 20 g, 14 days observation
Description: Für die Bestimmung der akuten Toxizität wurden Mäuse beider Geschlechter mit einem Körpergewicht von 20 g verwendet. 10 Tiere pro Dosis erhielten die Substanz einmalig appliziert. Die Berechnung der DL50, der Dosis, nach deren Verabreichung 50 % der Tiere innerhalb der Beobachtungszeit verstarben, erfolgte i nach der Methode von LITCHFIELD und WILCOXON nach einer Beobachtungszeit von 14 Tagen: • Racemat CL50 p.o.: 545 mg/kg DL50 i.v.: 66 mg/kg, […]

[2] = po, single dose p.o., read-out: DL50 p.o.

| Structure (SMILES) | ED50 (wachen weißen Ratten) [mg/kg] | antitussive Wirkung (Katze) | ED50 [1] [mg/kg] | LD50 at 336 h (Acute toxicity in mice; iv, single dose i.v., read-out: DL50 i.v.) [mg/kg] | LD50 at 336 h (Acute toxicity in mice; [2]) [mg/kg] |
| --- | --- | --- | --- | --- | --- |
| CC(CC1(c2ccccc2)c2ccccc2N(C=O)C1C)N(C)C (racemic) [Racemat, Rac. 2,3-Dihydro-2-methyl-3-[2-(dimethylamino)-propyl]-3-phenyl-1H-indol-1-carboxaldehyd] | 3.9 | deutliche hustenstillende Wirkung | 1.5 | 66 | 545 |
| CC(CC1(c2ccccc2)c2ccccc2N(C=O)C1C)N(C)C (single isomer, unassigned; (+)) [(+)-Enantiomeres, (+)-2,3-Dihydro-2-methyl-3-[2-(dimethylamino)-propyl]-3-phenyl-1H-indol-1-carboxaldehyd] | – | deutliche hustenstillende Wirkung | – | – | ~500 |
| CC(CC1(c2ccccc2)c2ccccc2N(C=O)C1C)N(C)C (single isomer, unassigned; (-)) [(-)-Enantiomeres, (-)-2,3-Dihydro-2-methyl-3-/2-(dimethylamino)-propyl/-3-phenyl-1H-indol-1-carboxaldehyd] | – | – | ~1 | – | ~560 |
